Consider five compounds from patent US8722849B2, “Polypeptides” (Novo Nordisk A/S, priority 2011, dated 2014).

Starred links: 1 amine or outer side, 2 acyl side, 3 side chain; linkers in the order of their positions; H or OH if unused. Positions of bridges follow the written chain, without caps; N, C: chain ends. Non-standard residues stand in square brackets, D forms with d. Residues, ends and D or L forms follow the SMILES beside them. *: point of attachment. C20 diacid = O=C(O)CCCCCCCCCCCCCCCCCCC(=O)*; C18 diacid = O=C(O)CCCCCCCCCCCCCCCCC(=O)*; γGlu = O=C(O)[C@H](CCC(=O)[*:2])N[*:1]; Orn = NCCC[C@H](N)C(=O)O; AEEA = NCCOCCOCC(=O)O Some results are limits rather than exact numbers.

The target in data set [1] is T1, rat amylin 3(a) receptor (rat calcitonin(a) receptor + rat RAMP3) (Rattus norvegicus, UniProt P32214+Q9JJ73).
T1 construct: expressed in transfected cells; host or cells: BHK tk'ts 13
T1 sequence (P32214 25-479 isoform P32214-2 limits assumed): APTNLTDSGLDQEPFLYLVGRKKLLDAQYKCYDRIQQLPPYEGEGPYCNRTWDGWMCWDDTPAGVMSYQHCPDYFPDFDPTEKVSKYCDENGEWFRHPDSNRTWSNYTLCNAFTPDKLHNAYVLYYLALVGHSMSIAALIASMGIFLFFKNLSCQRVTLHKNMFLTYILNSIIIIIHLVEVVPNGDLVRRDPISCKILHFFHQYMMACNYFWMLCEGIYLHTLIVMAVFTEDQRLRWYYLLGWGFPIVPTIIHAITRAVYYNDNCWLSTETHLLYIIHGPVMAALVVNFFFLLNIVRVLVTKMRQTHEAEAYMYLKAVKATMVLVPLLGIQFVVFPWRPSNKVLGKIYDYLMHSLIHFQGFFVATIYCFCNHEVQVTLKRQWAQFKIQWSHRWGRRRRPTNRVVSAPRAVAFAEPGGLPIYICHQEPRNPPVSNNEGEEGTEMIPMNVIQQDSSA
T1 sequence (Q9JJ73 23-147 partner): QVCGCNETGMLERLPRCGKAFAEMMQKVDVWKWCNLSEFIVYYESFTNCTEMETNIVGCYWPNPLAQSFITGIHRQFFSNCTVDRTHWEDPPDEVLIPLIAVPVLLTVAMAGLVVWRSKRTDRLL
The experiment in a line: Assay (II)b functional cAMP FlashPlate assay, rat amylin receptor. It counts as cell-based. As to conditions: Table 11. The procedure, abridged: (§1)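 cAMP accumulation in transiently transfected BHK tk'ts 13 cells, 100.000 cells/well, expressing rat calcitonin(a) receptor or its RAMP3 co-expression form (amylin 3(a)): 30 min stimulation with IBMX, 24 hours post-transfection. Readout by competition of cellular versus radiolabelled cAMP in FlashPlates, scintillation counted after 3 h.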

For data set [2], the target named is T2, rat calcitonin (a) receptor (Rattus norvegicus, UniProt P32214).
T2 construct: expressed in transfected cells; host or cells: BHK tk'ts 13
T2 sequence (P32214 25-479 isoform P32214-2 limits assumed): T1 sequence (P32214 25-479 isoform P32214-2 limits assumed)
Briefly: Assay (II)b functional cAMP FlashPlate assay, rat calcitonin receptor. The format is cell-based. As to conditions: Table 11; read-out: CTa receptor rat EC50. Put shortly: as §1

The nature of data set [3]: Assay (III) ThT fibrillation assay for physical stability. It counts as physicochemical. Put shortly: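 Freshly prepared formulations, pH-adjusted, with 1 μM ThT; four or eight replicates incubated at 37 °C under 960 rpm orbital shaking. Fluorescence (ex 444/em 485 nm) read every 20 min; […]. Peptide concentration measured by RP-HPLC before and after the run.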

What is called EC50 is the concentration at which the effect is half-maximal. On to `CC[C@H](C)[C@H](NC(=O)[C@@H]1CCCN1C(=O)CNC(=O)[C@H](Cc1ccccc1)NC(=O)[C@H](CC(N)=O)NC(=O)[C@H](CC(N)=O)NC(=O)[C@H](CO)NC(=O)[C@H](CO)NC(=O)[C@H](Cc1c[nH]cn1)NC(=O)[C@H](Cc1c[nH]cn1)NC(=O)[C@H](CC(C)C)NC(=O)[C@H](Cc1ccccc1)NC(=O)[C@H](CCC(=O)O)NC(=O)[C@H](C)NC(=O)[C@H](CC(C)C)NC(=O)[C@H](CCCNC(=N)N)NC(=O)[C@H](CCC(N)=O)NC(=O)[C@@H](NC(=O)[C@H](C)NC(=O)[C@@H]1CSSC[C@H](NC(=O)[C@H](Cc2c[nH]cn2)NC(=O)[C@H](Cc2c[nH]cn2)NC(=O)[C@H](Cc2c[nH]cn2)NC(=O)CC[C@H](NC(=O)CCCCCCCCCCCCCCCCCCC(=O)O)C(=O)O)C(=O)N[C@@H](CC(N)=O)C(=O)N[C@@H]([C@@H](C)O)C(=O)N[C@@H](C)C(=O)N[C@@H]([C@@H](C)O)C(=O)N1)[C@@H](C)O)C(=O)N[C@@H](CC(C)C)C(=O)N1CCC[C@H]1C(=O)N1CCC[C@H]1C(=O)N[C@H](C(=O)N[C@@H](CC(N)=O)C(=O)N[C@H](C(=O)NCC(=O)N[C@@H](CO)C(=O)N[C@@H](CCCNC(=N)N)C(=O)N[C@H](C(=O)N[C@@H](Cc1ccc(O)cc1)C(N)=O)[C@@H](C)O)C(C)C)[C@@H](C)O` [Example 21, N-alpha-[(S)-4-Carboxy-4-(19-carboxynonadecanoylamino)butyryl]-His-His-[His1,Glu14,His17,Arg35]-pramlintide] ({C20 diacid-γGlu}-HHHCNTATCATQRLAEFLHHSSNNFGPILPPTNVGSRTY-NH2; disulfide 4-9 (inferred)), for which the EC50 in data set [1] was 0.133 nM; in data set [2], 1.34 nM. The “ThT pH 4.0 lag time (h)” value in data set [3] (ThT fibrillation assay) came out at 1 h.
Take `CC[C@H](C)[C@H](NC(=O)[C@@H]1CCCN1C(=O)CNC(=O)[C@H](Cc1ccccc1)NC(=O)[C@H](CC(N)=O)NC(=O)[C@H](CC(N)=O)NC(=O)[C@H](CO)NC(=O)[C@H](CO)NC(=O)[C@H](Cc1c[nH]cn1)NC(=O)[C@H](CCCNC(=N)N)NC(=O)[C@H](CC(C)C)NC(=O)[C@H](Cc1ccccc1)NC(=O)[C@H](CCC(=O)O)NC(=O)[C@H](C)NC(=O)[C@H](CC(C)C)NC(=O)[C@H](CCCNC(=N)N)NC(=O)[C@H](CCC(N)=O)NC(=O)[C@@H](NC(=O)[C@H](C)NC(=O)[C@@H]1CSSC[C@H](NC(=O)[C@H](CCCCN)NC(=O)CC[C@H](NC(=O)CCCCCCCCCCCCCCCCC(=O)O)C(=O)O)C(=O)N[C@@H](CC(N)=O)C(=O)N[C@@H]([C@@H](C)O)C(=O)N[C@@H](C)C(=O)N[C@@H]([C@@H](C)O)C(=O)N1)[C@@H](C)O)C(=O)N[C@@H](CC(C)C)C(=O)N1CCC[C@H]1C(=O)N1CCC[C@H]1C(=O)N[C@H](C(=O)N[C@@H](CC(N)=O)C(=O)N[C@H](C(=O)NCC(=O)N[C@@H](CO)C(=O)N[C@@H](Cc1c[nH]cn1)C(=O)N[C@H](C(=O)N[C@@H](Cc1ccc(O)cc1)C(N)=O)[C@@H](C)O)C(C)C)[C@@H](C)O` [Example 61, N-alpha-[(S)-4-Carboxy-4-(17-carboxyheptadecanoylamino)butyryl]-[Glu14,Arg17,His35]-pramlintide] ({C18 diacid-γGlu}-KCNTATCATQRLAEFLRHSSNNFGPILPPTNVGSHTY-NH2; disulfide 2-7 (inferred)): the EC50 in data set [1] was determined as 0.038 nM. Besides, the EC50 in data set [2] came out at 2.36 nM. Also, in data set [3] (ThT fibrillation assay), the “ThT pH 4.0 lag time” value is over 45 h and the “ThT pH 4.0 lag time (h)” value is listed as over 45 h.
With `CC[C@H](C)[C@H](NC(=O)[C@@H]1CCCN1C(=O)CNC(=O)[C@H](Cc1ccccc1)NC(=O)[C@H](CC(N)=O)NC(=O)[C@H](CC(N)=O)NC(=O)[C@H](CO)NC(=O)[C@H](CO)NC(=O)[C@H](Cc1c[nH]cn1)NC(=O)[C@H](CCCNC(=N)N)NC(=O)[C@H](CC(C)C)NC(=O)[C@H](Cc1ccccc1)NC(=O)[C@H](CCC(=O)O)NC(=O)[C@H](C)NC(=O)[C@H](CC(C)C)NC(=O)[C@H](CCCNC(=N)N)NC(=O)[C@H](CCC(N)=O)NC(=O)[C@@H](NC(=O)[C@H](C)NC(=O)[C@@H]1CSSC[C@H](NC(=O)[C@H](CCCCN)NC(=O)[C@H](CCC(=O)O)NC(=O)CC[C@H](NC(=O)CCCCCCCCCCCCCCCCCCC(=O)O)C(=O)O)C(=O)N[C@@H](CC(N)=O)C(=O)N[C@@H]([C@@H](C)O)C(=O)N[C@@H](C)C(=O)N[C@@H]([C@@H](C)O)C(=O)N1)[C@@H](C)O)C(=O)N[C@@H](CC(C)C)C(=O)N1CCC[C@H]1C(=O)N1CCC[C@H]1C(=O)N[C@H](C(=O)N[C@@H](CC(N)=O)C(=O)N[C@H](C(=O)NCC(=O)N[C@@H](CO)C(=O)N[C@@H](Cc1c[nH]cn1)C(=O)N[C@H](C(=O)N[C@@H](Cc1ccc(O)cc1)C(N)=O)[C@@H](C)O)C(C)C)[C@@H](C)O` [Example 58, N-alpha-[(S)-4-Carboxy-4-(19-carboxynonadecanoylamino)butyryl]-Glu-[Glu14,Arg17,His35]-pramlintide] ({C20 diacid-γGlu}-EKCNTATCATQRLAEFLRHSSNNFGPILPPTNVGSHTY-NH2; disulfide 3-8 (inferred); C-terminus assumed), the EC50 in data set [1] came out at 0.063 nM; in data set [2], 2.23 nM. The “ThT pH 4.0 lag time” value in data set [3] (Table 8), in data set [3] (Table 9) and in data set [3] (ThT fibrillation assay) was over 45 h each time. In data set [3] (ThT fibrillation assay), the “ThT pH 4.0 lag time (h)” value was over 45 h.
As for `CC[C@H](C)[C@H](NC(=O)[C@@H]1CCCN1C(=O)CNC(=O)[C@H](Cc1ccccc1)NC(=O)[C@H](CC(N)=O)NC(=O)[C@H](CC(N)=O)NC(=O)[C@H](CO)NC(=O)[C@H](CO)NC(=O)[C@H](Cc1c[nH]cn1)NC(=O)[C@H](Cc1c[nH]cn1)NC(=O)[C@H](CC(C)C)NC(=O)[C@H](Cc1ccccc1)NC(=O)[C@H](CCC(=O)O)NC(=O)[C@H](C)NC(=O)[C@H](CC(C)C)NC(=O)[C@H](CCCNC(=N)N)NC(=O)[C@H](CCC(N)=O)NC(=O)[C@@H](NC(=O)[C@H](C)NC(=O)[C@@H]1CSSC[C@H](NC(=O)[C@H](Cc2c[nH]cn2)NC(=O)CC[C@H](NC(=O)CCCCCCCCCCCCCCCCCCC(=O)O)C(=O)O)C(=O)N[C@@H](CC(N)=O)C(=O)N[C@@H]([C@@H](C)O)C(=O)N[C@@H](C)C(=O)N[C@@H]([C@@H](C)O)C(=O)N1)[C@@H](C)O)C(=O)N[C@@H](CC(C)C)C(=O)N1CCC[C@H]1C(=O)N1CCC[C@H]1C(=O)N[C@H](C(=O)N[C@@H](CC(N)=O)C(=O)N[C@H](C(=O)NCC(=O)N[C@@H](CO)C(=O)N[C@@H](Cc1c[nH]cn1)C(=O)N[C@H](C(=O)N[C@@H](Cc1ccc(O)cc1)C(N)=O)[C@@H](C)O)C(C)C)[C@@H](C)O` [Example 76, N-alpha-[(S)-4-Carboxy-4-(19-carboxynonadecanoylamino)butyryl]-[His1,Glu14,His17,His35]-pramlintide] ({C20 diacid-γGlu}-HCNTATCATQRLAEFLHHSSNNFGPILPPTNVGSHTY-NH2; disulfide 2-7 (inferred); C-terminus assumed), the EC50 in data set [1] turned out to be 0.224 nM. The concentration giving a half-maximal response (EC50) in data set [2] was determined as 1.04 nM. In data set [3] (ThT fibrillation assay), the “ThT pH 4.0 lag time” value is over 45 h and the “ThT pH 4.0 lag time (h)” value is listed as over 45 h.
As for `CC[C@H](C)[C@H](NC(=O)[C@@H]1CCCN1C(=O)CNC(=O)[C@H](Cc1ccccc1)NC(=O)[C@H](CC(N)=O)NC(=O)[C@H](CC(N)=O)NC(=O)[C@H](CO)NC(=O)[C@H](CO)NC(=O)[C@H](CCCNC(=N)N)NC(=O)[C@H](Cc1c[nH]cn1)NC(=O)[C@H](CC(C)C)NC(=O)[C@H](Cc1ccccc1)NC(=O)[C@H](CCC(=O)O)NC(=O)[C@H](C)NC(=O)[C@H](CC(C)C)NC(=O)[C@H](CCCNC(=N)N)NC(=O)[C@H](CCC(N)=O)NC(=O)[C@@H](NC(=O)[C@H](C)NC(=O)[C@@H]1CSSC[C@H](NC(=O)[C@H](CCCN)NC(=O)[C@@H](CCCNC(=N)N)NC(=O)[C@@H](CCCNC(=N)N)NC(=O)COCCOCCNC(=O)COCCOCCNC(=O)CC[C@H](NC(=O)CCCCCCCCCCCCCCCCC(=O)O)C(=O)O)C(=O)N[C@@H](CC(N)=O)C(=O)N[C@@H]([C@@H](C)O)C(=O)N[C@@H](C)C(=O)N[C@@H]([C@@H](C)O)C(=O)N1)[C@@H](C)O)C(=O)N[C@@H](CC(C)C)C(=O)N1CCC[C@H]1C(=O)N1CCC[C@H]1C(=O)N[C@H](C(=O)N[C@@H](CC(N)=O)C(=O)N[C@H](C(=O)NCC(=O)N[C@@H](CO)C(=O)N[C@@H](CC(N)=O)C(=O)N[C@H](C(=O)N[C@@H](Cc1ccc(O)cc1)C(N)=O)[C@@H](C)O)C(C)C)[C@@H](C)O` [Example 120, N-alpha-[2-(2-{2-[2-(2-{2-[(S)-4-Carboxy-4-(17-carboxyheptadecanoylamino)butyrylamino]ethoxy}ethoxy)acetylamino]ethoxy}ethoxy)acetyl]-D-Arg-D-Arg-[Orn1,Glu14,His17,Arg18]-pramlintide] ({C18 diacid-γGlu-AEEA-AEEA}-[dR][dR][Orn]CNTATCATQRLAEFLHRSSNNFGPILPPTNVGSNTY-NH2; disulfide 4-9 (inferred); C-terminus assumed), the EC50 turned out to be 0.033 nM in data set [1] and 2.57 nM in data set [2]. The “ThT pH 4.0 lag time (h)” value in data set [3] (ThT fibrillation assay) worked out at 22 h.
